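Test compounds were applied to cells in 96-well plates for 48 hours at 5 doses. GI50: concentration for 50% inhibition of growth. TGI marks complete inhibition of growth.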
Experiments:
Experiment in all cases: DTP human tumour cell line panel, 48 h; in the data active = GI50 below about 0.43 µM; inactive = the rest
[1] = tested on: SK-MEL-28 melanoma
[2] = tested on: RPMI-8226 leukemia
[3] = tested on: SF-539 CNS
[4] = tested on: LOX IMVI melanoma
[5] = tested on: KM12 colon
[6] = tested on: K-562 leukemia
[7] = tested on: HCT-116 colon
[8] = tested on: COLO 205 colon
[9] = tested on: M19-MEL melanoma
[10] = tested on: HOP-62 NSCLC
[11] = tested on: ACHN renal
[12] = tested on: MOLT-4 leukemia
[13] = tested on: HCC-2998 colon
[14] = tested on: OVCAR-4 ovarian
[15] = tested on: SW-620 colon
[16] = tested on: HCT-15 colon
[17] = tested on: SK-MEL-2 melanoma
[18] = tested on: OVCAR-3 ovarian
[19] = tested on: DLD-1 colon
[20] = tested on: SNB-75 CNS
[21] = tested on: M14 melanoma
[22] = tested on: CAKI-1 renal
[23] = tested on: SK-OV-3 ovarian
[24] = tested on: UACC-62 melanoma
[25] = tested on: SNB-19 CNS
[26] = tested on: NCI-H226 lung
[27] = tested on: A498 renal
[28] = tested on: SNB-78 CNS
[29] = tested on: CCRF-CEM leukemia
[30] = tested on: DMS 273 small cell lung
[31] = tested on: LXFL 529 NSCLC
[32] = tested on: HOP-18 NSCLC
[33] = tested on: IGROV1 ovarian
[34] = tested on: KM20L2 colon
[35] = tested on: U251 CNS
[36] = tested on: HL-60(TB) leukemia
[37] = tested on: RXF 393 renal
[38] = tested on: OVCAR-8 ovarian
[39] = tested on: SK-MEL-5 melanoma
[40] = tested on: OVCAR-5 ovarian
[41] = tested on: EKVX NSCLC
[42] = tested on: NCI-H522 lung
[43] = tested on: NCI-H23 lung
[44] = tested on: TK-10 renal
[45] = tested on: UO-31 renal
[46] = tested on: UACC-257 melanoma
[47] = tested on: SF-295 CNS
[48] = tested on: MALME-3M melanoma
[49] = tested on: SN12C renal
[50] = tested on: NCI-H460 lung
[51] = tested on: 786-0 renal
[52] = tested on: HT29 colon
[53] = tested on: SF-268 CNS
[54] = tested on: A549 NSCLC

NC1CCCCC1N.O=C([O-])c1cc(S(=O)(=O)Nc2cc(S(=O)(=O)[O-])cc3cc(S(=O)(=O)[O-])cc(O)c23)ccc1[O-].[Pt+4]
inactive: GI50 [1] > 100 µM | GI50 [2] 89.5 µM | GI50 [3] > 100 µM | GI50 [4] > 100 µM | GI50 [5] > 100 µM | GI50 [6] > 100 µM | GI50 [7] > 100 µM | GI50 [8] > 100 µM | GI50 [9] > 100 µM | GI50 [10] > 100 µM | GI50 [11] > 100 µM | GI50 [12] > 100 µM | GI50 [13] > 100 µM | GI50 [14] > 100 µM | GI50 [15] > 100 µM | GI50 [16] > 100 µM | GI50 [17] > 100 µM | GI50 [18] > 100 µM | GI50 [19] > 100 µM | GI50 [20] > 100 µM | GI50 [21] > 100 µM | GI50 [22] > 100 µM | GI50 [23] > 100 µM | GI50 [24] > 100 µM | GI50 [25] > 100 µM | GI50 [26] > 100 µM | GI50 [27] > 100 µM | GI50 [28] > 100 µM | GI50 [29] > 100 µM | GI50 [30] > 100 µM | GI50 [31] > 100 µM | GI50 [32] > 100 µM | GI50 [33] > 100 µM | GI50 [34] > 100 µM | GI50 [35] > 100 µM | GI50 [36] 89.8 µM | GI50 [37] > 100 µM | GI50 [38] > 100 µM | GI50 [39] 88.7 µM | GI50 [40] > 100 µM | GI50 [41] > 100 µM | GI50 [42] > 100 µM | GI50 [43] > 100 µM | GI50 [44] > 100 µM | GI50 [45] > 100 µM | GI50 [46] > 100 µM | GI50 [47] > 100 µM | GI50 [48] 63.5 µM | GI50 [49] > 100 µM | GI50 [50] 41.8 µM | GI50 [51] > 100 µM | GI50 [52] > 100 µM | GI50 [53] > 100 µM | GI50 [54] 61.6 µM
> 100 µM: TGI [1] | TGI [2] | TGI [3] | TGI [4] | TGI [5] | TGI [6] | TGI [7] | TGI [8] | TGI [9] | TGI [10] | TGI [11] | TGI [12] | TGI [13] | TGI [14] | TGI [15] | TGI [16] | TGI [17] | TGI [18] | TGI [19] | TGI [20] | TGI [21] | TGI [22] | TGI [23] | TGI [24] | TGI [25] | TGI [26] | TGI [27] | TGI [28] | TGI [29] | TGI [30] | TGI [31] | TGI [32] | TGI [33] | TGI [34] | TGI [35] | TGI [36] | TGI [37] | TGI [38] | TGI [39] | TGI [40] | TGI [41] | TGI [42] | TGI [43] | TGI [44] | TGI [45] | TGI [46] | TGI [47] | TGI [48] | TGI [49] | TGI [50] | TGI [51] | TGI [52] | TGI [53] | TGI [54]

From PubChem BioAssay (NCI)
